# Experimental data taken from patent publication US11952344B2, “Heterocyclic compound and use thereof” (TAKEDA PHARMACEUTICAL COMPANY LIMITED, priority 2019, dated 2024).
# Target: T1, Human NMDA (NR1/NR2B) Receptor (Homo sapiens, UniProt Q13224)
# T1 construct: host or cells: HEK293
# Test: NR2B Ca2+ influx assay
# Type: cell-based
# Details: 10 μM compound; HEK293 cells expressing GRIN1 and GRIN2B; glutamic acid/glycine-induced Ca2+ influx, Fluo-4 fluorescence; read-out: inhibitory rate (10 μM compound concentration)
# Excerpt: Experimental Example 1 NR2B Ca^2+ Influx Assay
# To confirm the “antagonistic action on an NMDA receptor containing the NR2B subunit” of the compound of the present invention, human embryonic kidney cell expressing the “NMDA receptor composed of four subunits including 2 sets of heterodimers of NR1 and NR2B”, specifically HEK293 cell expressing human glutamate ionotropic receptor NMDA type subunit 1 (GRIN1) and human glutamate ionotropic receptor NMDA type subunit 2B (GRIN2B), was used and the activation suppressive effect (inhibitory activity) on the receptors by the compound of the present invention was measured.
# HEK293 cells that express GRIN1 and GRIN2B were purchased from ChanTest (Human NMDA (NR1/NR2B) Receptor-expressing, stable replicating cell line (HEK293) catalog No. CT6121).
# As an index of the NMDA receptor activation, intracellular calcium ion (Ca^2+) influx caused by the binding of glycine and glutamic acid with NR1 and NR2B, respectively, was used.
# HEK293 cells that express GRIN1 and GRIN2B were cultured in a cell culture flask in DMEM/F-12 (COSMO BIO, 10-092-CM) medium added with 10% FBS (fetal bovine serum, AusGene), 100 units/mL penicillin, 100 μg/mL streptomycin, 500 μg/mL neomycin, 100 μg/mL Zeocin (registered trade mark, Invitrogen), 5 μg/mL Blasticidin, in an incubator (37° C., 5% CO2).
# The cells were detached from flask with trypsin the day before the assay, suspended in a seeding medium (DMEM (Invitrogen, 31053) added with 10% FBS, 100 units/mL penicillin, 100 μg/mL streptomycin) at 8×10^5 cells/mL, seeded by 25 μL/well in a 384-well plate (Falcon, 356663) at 20000 cells/well, and cultured overnight in an incubator. On the day of the assay, tetracycline (Wako Pure Chemical Industries, Ltd., 209-16561) was diluted with the seeding medium at 2 μg/mL, added at 25 μL/well to the plate seeded with the cells, and cultured for 2 hr in an incubator. Thereafter, the medium was removed, and the cells were washed with 50 μL/well assay buffer (137 mM NaCl, 4 mM KCl, 1.8 mM CaCl2, 10 mM HEPES (pH 7.2), 10 mM Glucose, 0.1% BSA). Then, a loading buffer (assay buffer added with 2.5 μM Fluo-4AM, 2 mM Amaranth, 1 mM Tartrazine) was added at 25 μL/well, and incubation was performed in the incubator for 30 min, and at room temperature for 15 min. A solution (25 μL/well) of the Example compound diluted with the above-mentioned assay buffer at 30 μM (final concentration 10 μM) was added, and the cells were stood for 15 min at room temperature. Using FDSS7000EX/μCELL (Hamamatsu Photonics K.K.), 25 μL/well of an assay buffer containing 30 μM glutamic acid, 30 μM glycine was added, and the fluorescence signal at wavelength of Excitation 480 nm, Emission 540 nm was measured every 3 seconds for 5 min. The inhibitory activity was calculated as a relative activity value (inhibitory rate) that inhibits 100% of the cumulative value of the fluorescence value of a well added with an assay buffer free of glutamic acid, glycine, relative to the cumulative value of the fluorescence value of each well.
# T1 sequence (Q13224 27-1484, other chains not shown): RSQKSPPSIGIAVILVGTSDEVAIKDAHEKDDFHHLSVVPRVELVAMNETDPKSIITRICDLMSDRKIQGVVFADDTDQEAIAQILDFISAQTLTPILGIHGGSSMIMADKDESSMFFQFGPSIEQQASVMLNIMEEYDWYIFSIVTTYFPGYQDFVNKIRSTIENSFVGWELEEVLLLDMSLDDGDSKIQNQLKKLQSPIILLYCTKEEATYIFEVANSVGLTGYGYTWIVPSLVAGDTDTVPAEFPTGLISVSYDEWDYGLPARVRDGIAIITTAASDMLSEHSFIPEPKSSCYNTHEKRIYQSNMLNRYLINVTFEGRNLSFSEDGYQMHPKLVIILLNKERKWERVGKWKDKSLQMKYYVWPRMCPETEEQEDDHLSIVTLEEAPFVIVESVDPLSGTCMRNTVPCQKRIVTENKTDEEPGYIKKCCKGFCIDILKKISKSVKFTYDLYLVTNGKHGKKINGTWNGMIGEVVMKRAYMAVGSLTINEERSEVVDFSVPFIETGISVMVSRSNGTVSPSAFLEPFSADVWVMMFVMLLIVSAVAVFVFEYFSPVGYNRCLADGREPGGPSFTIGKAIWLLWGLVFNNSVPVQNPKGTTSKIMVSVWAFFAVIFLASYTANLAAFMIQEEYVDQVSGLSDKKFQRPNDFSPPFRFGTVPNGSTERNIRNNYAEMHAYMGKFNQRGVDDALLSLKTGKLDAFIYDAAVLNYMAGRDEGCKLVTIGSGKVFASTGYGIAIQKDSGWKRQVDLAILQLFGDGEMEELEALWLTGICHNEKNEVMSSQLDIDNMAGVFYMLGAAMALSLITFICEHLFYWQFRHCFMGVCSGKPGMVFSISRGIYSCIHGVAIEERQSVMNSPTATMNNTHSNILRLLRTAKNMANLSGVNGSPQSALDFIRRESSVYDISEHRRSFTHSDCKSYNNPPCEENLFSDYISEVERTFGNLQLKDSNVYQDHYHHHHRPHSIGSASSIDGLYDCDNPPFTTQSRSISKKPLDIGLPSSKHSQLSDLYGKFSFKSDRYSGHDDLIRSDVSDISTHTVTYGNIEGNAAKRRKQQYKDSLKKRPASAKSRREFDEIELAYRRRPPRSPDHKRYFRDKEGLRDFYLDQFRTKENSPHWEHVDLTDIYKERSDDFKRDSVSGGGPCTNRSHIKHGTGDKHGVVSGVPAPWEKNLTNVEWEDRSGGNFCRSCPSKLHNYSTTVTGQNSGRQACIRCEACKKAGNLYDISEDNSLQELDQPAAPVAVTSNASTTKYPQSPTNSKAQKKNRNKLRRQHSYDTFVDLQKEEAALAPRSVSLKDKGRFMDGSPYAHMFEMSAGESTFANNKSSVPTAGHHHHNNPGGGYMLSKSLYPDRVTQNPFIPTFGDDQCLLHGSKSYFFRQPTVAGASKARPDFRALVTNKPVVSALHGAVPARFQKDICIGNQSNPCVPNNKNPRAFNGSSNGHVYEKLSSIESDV
row,inhibition at 10 µM,Structure (SMILES)
1,94%,"O=C(NCc1cnccc1C(F)(F)F)c1cnc(OC(F)F)c(F)c1 [Example 16, 6-(difluoromethoxy)-5-fluoro-N-{[4-(trifluoromethyl)pyridin-3-yl]methyl}pyridine-3-carboxamide]"
2,95%,"CCOc1ncncc1CNC(=O)c1cnc(OC(F)F)c(F)c1 [Example 24, 6-(difluoromethoxy)-N-[(4-ethoxypyrimidin-5-yl)methyl]-5-fluoropyridine-3-carboxamide]"
3,91%,"COc1c(F)cc(C(=O)NCc2cnccc2C)cc1F [Example 71, 3,5-difluoro-4-methoxy-N-[(4-methylpyridin-3-yl)methyl]benzamide]"
4,93%,"COc1ncncc1CNC(=O)c1ccc(OC(F)(F)F)cc1 [Example 26, N-[(4-methoxypyrimidin-5-yl)methyl]-4-(trifluoromethoxy)-benzamide]"
5,95%,"Cc1c(F)cncc1CNC(=O)c1cnc(C2CC2(F)F)c(Cl)c1 (stereo not shown) [Example 104, 5-chloro-6-(2,2-difluorocyclopropyl)-N-[(5-fluoro-4-methylpyridin-3-yl)methyl]pyridine-3-carboxamide]"
6,95%,"O=C(NCc1cncnc1C1CC1)c1cnc(OC(F)F)c(F)c1 [Example 23, N-[(4-cyclopropylpyrimidin-5-yl)methyl]-6-(difluoromethoxy)-5-fluoropyridine-3-carboxamide]"
7,85%,"Cc1ccncc1CNC(=O)c1ccc(C(F)F)c(F)c1 [Example 58, 4-(difluoromethyl)-3-fluoro-N-[(4-methylpyridin-3-yl)methyl]benzamide]"
8,90%,"O=C(NCc1cncnc1OC1CC1)c1cnc(C2CC2)c(F)c1 [Example 81, 6-cyclopropyl-N-{[4-(cyclopropyloxy)-pyrimidin-5-yl]methyl}-5-fluoropyridine-3-carboxamide]"
9,87%,"COc1ncncc1CNC(=O)c1cc(F)c(OC)c(F)c1 [Example 62, 3,5-difluoro-4-methoxy-N-[(4-methoxypyrimidin-5-yl)methyl]benzamide]"
10,72%,"Cc1ccncc1CNC(=O)c1csc(C(F)F)c1 [Example 100, 5-(difluoromethyl)-N-[(4-methylpyridin-3-yl)methyl]thiophene-3-carboxamide]"
11,85%,"Cc1ccncc1CNC(=O)c1ccc(C(F)(F)F)s1 [Example 64, N-[(4-methylpyridin-3-yl)methyl]-5-(trifluoromethyl)thiophene-2-carboxamide]"
12,92%,"Cc1c(F)cncc1CNC(=O)c1cnc(C2CC2(F)F)c(F)c1 (stereo not shown) [Example 103, 6-(2,2-difluorocyclopropyl)-5-fluoro-N-[(5-fluoro-4-methylpyridin-3-yl)methyl]pyridine-3-carboxamide]"
13,97%,"Cc1c(Cl)cncc1CNC(=O)c1cnc(OC(F)F)c(F)c1 [Example 47, N-[(5-chloro-4-methylpyridin-3-yl)methyl]-6-(difluoromethoxy)-5-fluoropyridine-3-carboxamide]"
14,95%,"CCOc1c(F)cncc1CNC(=O)c1cnc(OC(F)F)c(F)c1 [Example 61, 6-(difluoromethoxy)-N-[(4-ethoxy-5-fluoropyridin-3-yl)methyl]-5-fluoropyridine-3-carboxamide]"
15,93%,"COc1ncncc1CNC(=O)c1cnc(OC(F)F)c(Cl)c1 [Example 21, 5-chloro-6-(difluoromethoxy)-N-[(4-methoxypyrimidin-5-yl)methyl]pyridine-3-carboxamide]"
16,91%,"Cc1ccncc1CNC(=O)c1cc(F)c(OC(F)F)c(F)c1 [Example 55, 4-(difluoromethoxy)-3,5-difluoro-N-[(4-methylpyridin-3-yl)methyl]benzamide]"
17,93%,"Cc1ccncc1CNC(=O)c1ccc(C(F)F)c(Cl)c1 [Example 59, 3-chloro-4-(difluoromethyl)-N-[(4-methylpyridin-3-yl)methyl]benzamide]"

row,inhibition at 10 µM,Structure (SMILES)
1,92%,"Cc1ncncc1CNC(=O)c1ccc(OC(F)(F)F)c(F)c1 [Example 30, 3-fluoro-N-[(4-methylpyrimidin-5-yl)methyl]-4-(trifluoromethoxy)-benzamide]"
2,93%,"O=C(NCc1cncc(Cl)c1)c1ccc(OC(F)(F)F)cc1 [Example 2, N-[(5-chloropyridin-3-yl)methyl]-4-(trifluoromethoxy)benzamide]"
3,88%,"COc1ncncc1CNC(=O)c1ccc(OC(F)F)cc1 [Example 25, 4-(difluoromethoxy)-N-[(4-methoxypyrimidin-5-yl)methyl]benzamide]"
4,89%,"COc1ncncc1CNC(=O)c1csc(C2CC2)c1 [Example 79, 5-cyclopropyl-N-[(4-methoxypyrimidin-5-yl)methyl]thiophene-3-carboxamide]"
5,94%,"Cc1ccncc1CNC(=O)c1ccc(OC(F)(F)F)c(F)c1 [Example 49, 3-fluoro-N-[(4-methylpyridin-3-yl)methyl]-4-(trifluoromethoxy)-benzamide]"
6,97%,"O=C(NCc1cncc(F)c1OC1CC1)c1cnc(OC(F)F)c(F)c1 [Example 39, N-{[4-(cyclopropyloxy)-5-fluoropyridin-3-yl]methyl}-6-(difluoromethoxy)-5-fluoropyridine-3-carboxamide]"
7,90%,"CC(F)(F)c1ncc(C(=O)NCc2cncnc2OC2CC2)cc1Cl [Example 95, 5-chloro-N-{[4-(cyclopropyloxy)pyrimidin-5-yl]methyl}-6-(1,1-difluoroethyl)pyridine-3-carboxamide]"
8,95%,"COc1cncc(CNC(=O)c2ccc(OC(F)(F)F)cc2)c1 [Example 1, N-[(5-methoxypyridin-3-yl)methyl]-4-(trifluoromethoxy)benzamide]"
9,85%,"COc1ncncc1CNC(=O)c1cnc(C(C)(F)F)c(Cl)c1 [Example 96, 5-chloro-6-(1,1-difluoroethyl)-N-[(4-methoxypyrimidin-5-yl)methyl]pyridine-3-carboxamide]"
10,94%,"CCc1c(F)cncc1CNC(=O)c1cnc(OC(F)F)c(F)c1 [Example 41, 6-(difluoromethoxy)-N-[(4-ethyl-5-fluoropyridin-3-yl)methyl]-5-fluoropyridine-3-carboxamide]"
11,90%,"COc1c(F)cc(C(=O)NCc2cncnc2OC2CC2)cc1F [Example 74, N-{[4-(cyclopropyloxy)-pyrimidin-5-yl]methyl}-3,5-difluoro-4-methoxybenzamide]"
12,94%,"Cc1ccncc1CNC(=O)c1ccc(C(F)(F)F)c(Cl)c1 [Example 54, 3-chloro-N-[(4-methylpyridin-3-yl)methyl]-4-(trifluoromethyl)-benzamide]"
13,83%,"Cc1ccncc1CNC(=O)c1cnc(C(F)(F)F)c(Cl)c1 [Example 52, 5-chloro-N-[(4-methylpyridin-3-yl)methyl]-6-(trifluoromethyl)pyridine-3-carboxamide]"
14,98%,"COc1ccncc1CNC(=O)c1cnc(OC(F)F)c(Cl)c1 [Example 17, 5-chloro-6-(difluoromethoxy)-N-[(4-methoxypyridin-3-yl)methyl]pyridine-3-carboxamide]"
15,88%,"Cc1ccncc1CNC(=O)c1ccc(OC(F)F)c(F)c1 [Example 48, 4-(difluoromethoxy)-3-fluoro-N-[(4-methylpyridin-3-yl)methyl]benzamide]"
16,90%,"Cc1ccncc1CNC(=O)c1cnc(C2CC2(F)F)c(F)c1 (stereo not shown) [Example 101, 6-(2,2-difluorocyclopropyl)-5-fluoro-N-[(4-methylpyridin-3-yl)methyl]pyridine-3-carboxamide]"
17,90%,"Cc1ccncc1CNC(=O)c1ccc(OC(F)F)cc1 [Example 50, 4-(difluoromethoxy)-N-[(4-methylpyridin-3-yl)methyl]benzamide]"
